What was measured:
LTB4 Receptor = target: T1, LTB4 Receptor (Homo sapiens, UniProt Q15722); experiment: LTB4 Receptor Binding Assay; details: potency relative to compound of Example 1(b), defined as 1.0; 0.6×10^-9 M (^3H) LTB4, human neutrophils, 0° C, 45 minutes
T1 construct: Neutrophils were purified from venous blood of normal human donors; endogenous in cells; host or cells: neutrophils from venous blood of normal human donors (>95% pure)
Protocol: Neutrophils were purified from venous blood of normal human donors using standard techniques of dextran sedimentation, centrifugation on Ficoll-paque® (Pharmacia) or Histopaque® sterile solution (Sigma) and hypotonic lysis of erythrocytes (Boyum, A., Isolation of Leukocytes From Human Blood: Further Observations. Scand. J. Lab. Clin. Invest., 21 (Suppl. 97): 31, 1968). […] The incubation was carried out at 0° C. for 45 minutes and terminated by adding 5 ml of ice-cold HBSS followed by rapid filtration of incubation mixture under vacuum through GF/C glass fiber filters. The filters were further washed with 10 ml HBSS and radioactivity was determined. […] All data refer to specific binding. […] Pat. No. 4,889,871.

Human neutrophils [1] = experiment: Modified Boyden Chamber Chemotaxis, LTB4-induced; assay type: cell-based; details: 3×10^-8 M LTB4, 90 minutes, 37° C; for Relative Potency, Chemotaxis LTB4: potency relative to compound of Example 1(b), defined as 1.0
From the text: (§1) Neutrophils were purified from venous blood of normal human donors using standard techniques of dextran sedimentation, centrifugation on Ficoll-paque® (Pharmacia) or Histopaque® sterile solution (Sigma) and hypotonic lysis of erythrocytes (Boyum, A., Isolation of Leukocytes From Human Blood: Further Observations. Scand. J. Lab. Clin. Invest., 21 (Suppl. 97): 31, 1968). The purity of isolated neutrophils was >95%. […] A final cell suspension of 3.4×10^6 neutrophils/ml of HEPES-buffered Hanks' balanced salt solution (HBSS, pH 7.3) was added to the upper well (0.8 ml) of a modified Boyden chamber (blind well). […] Following a 90 minute incubation at 37° C. in 5% CO2 -95% air, cells from the lower well were lysed and nuclei counted in a Model S-Plus-IV Coulter Counter. Percent inhibition was calculated from cell counts corrected for random migration by subtracting the mean of the HBSS control. […] Pat. No. 4,889,871.

Human neutrophils [2] = experiment: Modified Boyden Chamber Chemotaxis, fMLP-induced; assay type: cell-based; details: 1.0×10^-8 M fMLP, 90 minutes, 37° C; for Relative Potency, Chemotaxis fMLP: potency relative to compound of Example 1(b), defined as 1.0
From the text: as §1

[3] = Homo sapiens, Neutrophil, 1.5 h, value in parentheses

T1 sequence (Q15722 whole entry): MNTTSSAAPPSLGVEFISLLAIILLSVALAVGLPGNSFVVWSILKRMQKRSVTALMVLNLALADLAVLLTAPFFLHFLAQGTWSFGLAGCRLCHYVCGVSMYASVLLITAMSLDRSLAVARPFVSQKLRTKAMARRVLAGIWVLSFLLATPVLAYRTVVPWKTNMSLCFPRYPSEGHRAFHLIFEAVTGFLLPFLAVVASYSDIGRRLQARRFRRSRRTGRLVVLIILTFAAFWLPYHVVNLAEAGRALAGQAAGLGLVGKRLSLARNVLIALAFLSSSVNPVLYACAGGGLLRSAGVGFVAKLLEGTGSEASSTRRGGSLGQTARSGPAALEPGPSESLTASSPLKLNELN

CCCc1c(OCCCOc2ccc(-c3cc[nH]n3)c(OC)c2CCC)ccc2c1OC(C(=O)O)CC2 (centres unmarked) [Example 6, 3,4-Dihydro-7-[3-[3-methoxy-2-propyl-4-(1H-pyrazol-3-yl)phenoxy]propoxy]-8-propyl-2H-1-benzopyran-2-carboxylic acid]
Relative Potency, LTB4 Receptor Binding (LTB4 Receptor): 0.88 | Relative Potency, Chemotaxis LTB4 (Human neutrophils [1]): 0.66 | Relative Potency, Chemotaxis fMLP (Human neutrophils [2]): 0.35

CCCc1c(OCCCOc2ccc(-c3ccon3)c(OC)c2CCC)ccc2c1OC(C(=O)O)CC2 (centres unmarked) [Example 4, 3,4-Dihydro-7-[3-[4-(3-isoxazolyl)-3-methoxy-2-propylphenoxy]propoxy]-8-propyl-2H-1-benzopyran-2-carboxylic acid]
Relative Potency, LTB4 Receptor Binding (LTB4 Receptor): 0.70 | Relative Potency, Chemotaxis LTB4 (Human neutrophils [1]): 0.25 | Relative Potency, Chemotaxis fMLP (Human neutrophils [2]): 0.37

CCCc1c(OCCCOc2ccc(C(C)=O)c(OC)c2CCC)ccc2c1OC(C(=O)O)CC2 (centres unmarked) [Example 1(b), 7-[3-(4-acetyl-3-methoxy-2-propylphenoxy)propoxy]-3,4-dihydro-8-propyl-2H-1-benzopyran-2-carboxylic acid, reference compound]
IC50 (Human neutrophils [1]; [3]): 1.8 µM | IC50 (Human neutrophils [2]; [3]): 5.4 µM

From US5051438A, “Alkoxy-substituted dihydrobenzopyran-2-carboxylic acids and derivatives thereof, compositions and use” (G. D. Searle & Co., priority 1990, dated 1991)
